Test results published in US4010149A, “Analogs of LH-RH and process for preparing the same” (Sankyo Company Limited, priority 1974, dated 1977).

System: ovulation
Assay: Ovulation inducing effect in proestrus rats (subcutaneous)
Format: in vivo, F. Wistar-Imamichi rats
Settings: subcutaneous injection at 4:00 p.m. on proestrus day; pentobarbital 30 mg/kg i.p. at 1:00 p.m.; five rats per dosage
Experimental: Examination of ovulation inducing effect
F. Wistar-Imamichi rats (body weight: around 250 g) were bred at room temperature (23° ±1° C) under an artificial light (on at 5:00 a.m. and off at 7:00 p.m.). Among these rats, the rats which had more than three times of four days sexual cycle were subjected to the test.
At 1:00 p.m. on proestrus days, pentobarbital sodium salt was intraperitoneally administered into each of rats (in the amount of 30 mg/kg). Then, at 4:00 p.m. of the same day, a test sample dissolved in 0.1 ml of isotonic sodium chloride solution was subcutaneously injected. Between noon and 1:00 p.m. of the next day, the rats were sacrified and the oviduct was immediately taken out. The oviduct was then placed between a couple of slide glasses and examined for ova through a microscope. The test was conducted by employing five rats for a certain dosage of test samples.

CCCC[C@@H](NC(=O)[C@H](Cc1ccc(O)cc1)NC(=O)[C@H](CO)NC(=O)[C@H](Cc1c[nH]c2ccccc12)NC(=O)[C@H](Cc1c[nH]cn1)NC(=O)CN(C)C(C)=O)C(=O)N[C@@H](CC(C)C)C(=O)N[C@@H](CCCNC(=N)N)C(=O)N1CCC[C@H]1C(=O)NCCF [Compound B, N-Acetyl-N-methylglycyl-L-histidyl-L-tryptophyl-L-seryl-L-tyrosyl-D-norleucyl-L-leucyl-L-arginyl-L-proline-2-fluoroethylamide]
ED50 (ovulation inducing effect): 0.0125 μg/body

CC(C)C[C@H](NC(=O)CNC(=O)[C@H](Cc1ccc(O)cc1)NC(=O)[C@H](CO)NC(=O)[C@H](Cc1c[nH]c2ccccc12)NC(=O)[C@H](Cc1c[nH]cn1)NC(=O)[C@@H]1CCC(=O)N1)C(=O)N[C@@H](CCCNC(=N)N)C(=O)N1CCC[C@H]1C(=O)NCC(N)=O [Natural-type LH-RH (synthesized), L-pyroglutamyl-L-histidyl-L-tryptophyl-L-seryl-L-tyrosylglycyl-L-leucyl-L- arginyl-L-prolylglycine amide, reference compound]
ED50 (ovulation inducing effect): 0.134 μg/body

N-Acetyl-N-methylglycyl-L-histidyl-L-tryptophyl-L-seryl-L-tyrosyl-D-alanyl-L-leucyl-L-arginyl-L-prolineethylamide [Compound A]
ED50 (ovulation inducing effect): 0.018 μg/body
